Reference: article PMC13516207 (Pharmaceuticals, 2026)
Bridge positions count the residues as written; N and C are the ends. Square brackets hold non-standard residues; d marks the D form. Side chains are listed from the residue outwards. Peptide text beside a SMILES is read from it. * marks the point of attachment. NOTA = O=C(O)CN1CCN(CC(=O)O)CCN(CC(=O)*)CC1; 2Nal = N[C@@H](Cc1ccc2ccccc2c1)C(=O)O; Lys(iPr) = CC(C)NCCCC[C@H](N)C(=O)O

Target: human CXCR4 (Homo sapiens, UniProt P61073)
Assay: CXCL12-AF647 competition binding on Jurkat cells, flow cytometry
Conditions: competition with CXCL12-AF647, mean ± SD
Description: Subsequently, 50 µL containing 0.25 × 10^6 Jurkat cells was added to each well, followed by 50 µL human CXCL12-AF647 (100 ng/mL; Almac, Craigavon, UK). Plates were incubated for 30 min at room temperature in the dark. After incubation, the cells were washed twice by centrifugation (400× g, 5 min) to replace the supernatant and subsequently fixed with 1% paraformaldehyde (Merck, Darmstadt, Germany). Fluorescence intensity was quantified by flow cytometry, and IC50 values were obtained by nonlinear regression analysis. All measurements were performed with at least four technical replicates.

human CXCR4, sequence (P61073 whole entry): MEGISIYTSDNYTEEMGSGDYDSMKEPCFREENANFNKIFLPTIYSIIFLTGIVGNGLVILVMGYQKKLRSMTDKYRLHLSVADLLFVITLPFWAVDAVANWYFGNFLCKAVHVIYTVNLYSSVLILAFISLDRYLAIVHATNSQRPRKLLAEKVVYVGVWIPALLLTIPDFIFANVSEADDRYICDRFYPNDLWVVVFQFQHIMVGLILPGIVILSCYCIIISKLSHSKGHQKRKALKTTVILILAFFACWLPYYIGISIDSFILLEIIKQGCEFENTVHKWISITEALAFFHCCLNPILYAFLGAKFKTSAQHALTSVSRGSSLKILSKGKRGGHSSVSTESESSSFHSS

Row | SMILES | IC50
1 | CC(C)NCCCC[C@H](NC(=O)[C@H]1CCC(=O)N[C@@H](Cc2ccccc2)C(=O)N[C@@H](Cc2ccc(O)cc2)C(=O)N[C@@H](CCCCNC(C)C)C(=O)N[C@H](CCCNC(=N)N)C(=O)N[C@@H](Cc2ccc3ccccc3c2)C(=O)NCC(=O)N1)C(N)=O [LY2510924, cyclo[Phe-Tyr-Lys(iPr)-D-Arg-2-Nal-Gly-D-Glu]-Lys(iPr)-NH2] (FY[Lys(iPr)][dR][2Nal]G[dE][Lys(iPr)]-NH2; lactam N-7) | 0.36 ± 0.07 nM
2 | CC(C)NCCCC[C@@H]1NC(=O)[C@H](Cc2ccc(O)cc2)NC(=O)[C@H](Cc2ccccc2)NC(=O)CC[C@H](C(=O)N[C@@H](CCCCNC(C)C)C(=O)N[C@@H](CCCCNC(=O)[C@H](CCC(=O)O)NC(=O)[C@H](CCC(=O)O)NC(=O)[C@H](CCC(=O)O)NC(=O)CN2CCN(CC(=O)O)CCN(CC(=O)O)CC2)C(N)=O)NC(=O)CNC(=O)[C@H](Cc2ccc3ccccc3c2)NC(=O)[C@@H](CCCNC(=N)N)NC1=O [[^natF]AlF-NOTA-SC] (FY[Lys(iPr)][dR][2Nal]G[dE][Lys(iPr)]K([Glu-Glu-Glu-NOTA])-NH2; lactam N-7) | 14.4 ± 2.65 nM
